Results taken from PubChem BioAssay (NCI).
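Tested at 5 concentrations; 48 h exposure; 96-well plates; endpoints linearly interpolated, else capped at highest concentration. TGI denotes the concentration required for complete inhibition of growth.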

Experiments:
Experiment in all cases: NCI anticancer screen, dose series, 48 h
DU-145 prostate = system: DU-145 prostate
786-0 renal = system: 786-0 renal
SF-268 CNS = system: SF-268 CNS
SK-MEL-2 melanoma = system: SK-MEL-2 melanoma
EKVX NSCLC = system: EKVX NSCLC
BT-549 breast = system: BT-549 breast
HL-60(TB) leukemia = system: HL-60(TB) leukemia
HOP-62 NSCLC = system: HOP-62 NSCLC
SW-620 colon = system: SW-620 colon
ACHN renal = system: ACHN renal
SF-295 CNS = system: SF-295 CNS
NCI/ADR-RES ovarian = system: NCI/ADR-RES ovarian
SK-OV-3 ovarian = system: SK-OV-3 ovarian
SNB-19 CNS = system: SNB-19 CNS
MDA-MB-435 = system: MDA-MB-435
A549 NSCLC = system: A549 NSCLC
MDA-MB-231 breast = system: MDA-MB-231 breast
CCRF-CEM leukemia = system: CCRF-CEM leukemia
SK-MEL-28 melanoma = system: SK-MEL-28 melanoma
MCF7 breast = system: MCF7 breast
MDA-N = system: MDA-N
HT29 colon = system: HT29 colon
RXF 393 renal = system: RXF 393 renal
TK-10 renal = system: TK-10 renal
OVCAR-3 ovarian = system: OVCAR-3 ovarian
COLO 205 colon = system: COLO 205 colon
HS 578T breast = system: HS 578T breast
K-562 leukemia = system: K-562 leukemia
OVCAR-5 ovarian = system: OVCAR-5 ovarian
NCI-H23 lung = system: NCI-H23 lung
RPMI-8226 leukemia = system: RPMI-8226 leukemia
HCT-15 colon = system: HCT-15 colon
OVCAR-4 ovarian = system: OVCAR-4 ovarian
HCC-2998 colon = system: HCC-2998 colon
IGROV1 ovarian = system: IGROV1 ovarian
UACC-257 melanoma = system: UACC-257 melanoma
NCI-H460 lung = system: NCI-H460 lung
SF-539 CNS = system: SF-539 CNS
KM12 colon = system: KM12 colon
LOX IMVI melanoma = system: LOX IMVI melanoma
CAKI-1 renal = system: CAKI-1 renal
PC-3 prostate = system: PC-3 prostate
UACC-62 melanoma = system: UACC-62 melanoma
HOP-92 NSCLC = system: HOP-92 NSCLC
SN12C renal = system: SN12C renal
UO-31 renal = system: UO-31 renal
HCT-116 colon = system: HCT-116 colon
SR leukemia = system: SR leukemia
MALME-3M melanoma = system: MALME-3M melanoma
SK-MEL-5 melanoma = system: SK-MEL-5 melanoma
T-47D breast = system: T-47D breast
SNB-75 CNS = system: SNB-75 CNS
M14 melanoma = system: M14 melanoma
U251 CNS = system: U251 CNS
NCI-H226 lung = system: NCI-H226 lung
MOLT-4 leukemia = system: MOLT-4 leukemia
NCI-H522 lung = system: NCI-H522 lung
A498 renal = system: A498 renal
OVCAR-8 ovarian = system: OVCAR-8 ovarian

NC(Cc1ccc2nc3c4ccccc4c(=O)cc-3oc2c1)C(=O)O (stereo not drawn)
TGI (DU-145 prostate): > 100 µM | TGI (786-0 renal): > 100 µM | TGI (SF-268 CNS): > 100 µM | TGI (SK-MEL-2 melanoma): > 100 µM | TGI (EKVX NSCLC): > 100 µM | TGI (BT-549 breast): > 100 µM | TGI (HL-60(TB) leukemia): > 100 µM | TGI (HOP-62 NSCLC): > 100 µM | TGI (SW-620 colon): > 100 µM | TGI (ACHN renal): > 100 µM | TGI (SF-295 CNS): > 100 µM | TGI (NCI/ADR-RES ovarian): > 100 µM | TGI (SK-OV-3 ovarian): > 100 µM | TGI (SNB-19 CNS): > 100 µM | TGI (MDA-MB-435): 32.3 µM | TGI (A549 NSCLC): > 100 µM | TGI (MDA-MB-231 breast): > 100 µM | TGI (CCRF-CEM leukemia): > 100 µM | TGI (SK-MEL-28 melanoma): > 100 µM | TGI (MCF7 breast): 41.4 µM | TGI (MDA-N): 29.4 µM | TGI (HT29 colon): > 100 µM | TGI (RXF 393 renal): > 100 µM | TGI (TK-10 renal): > 100 µM | TGI (OVCAR-3 ovarian): > 100 µM | TGI (COLO 205 colon): > 100 µM | TGI (HS 578T breast): > 100 µM | TGI (K-562 leukemia): > 100 µM | TGI (OVCAR-5 ovarian): > 100 µM | TGI (NCI-H23 lung): 65.1 µM | TGI (RPMI-8226 leukemia): > 100 µM | TGI (HCT-15 colon): > 100 µM | TGI (OVCAR-4 ovarian): > 100 µM | TGI (HCC-2998 colon): > 100 µM | TGI (IGROV1 ovarian): > 100 µM | TGI (UACC-257 melanoma): > 100 µM | TGI (NCI-H460 lung): > 100 µM | TGI (SF-539 CNS): > 100 µM | TGI (KM12 colon): > 100 µM | TGI (LOX IMVI melanoma): > 100 µM | TGI (CAKI-1 renal): > 100 µM | TGI (PC-3 prostate): > 100 µM | TGI (UACC-62 melanoma): > 100 µM | TGI (HOP-92 NSCLC): > 100 µM | TGI (SN12C renal): > 100 µM | TGI (UO-31 renal): > 100 µM | TGI (HCT-116 colon): > 100 µM | TGI (SR leukemia): > 100 µM | TGI (MALME-3M melanoma): 36.8 µM | TGI (SK-MEL-5 melanoma): 34.6 µM | TGI (T-47D breast): > 100 µM | TGI (SNB-75 CNS): > 100 µM | TGI (M14 melanoma): > 100 µM | TGI (U251 CNS): > 100 µM

Cc1c2c(n(CC(c3ccccc3)c3ccccc3)c1C)NN=C(C#N)S2(=O)=O
TGI (NCI-H226 lung): > 100 µM | TGI (DU-145 prostate): > 100 µM | TGI (786-0 renal): > 100 µM | TGI (SF-268 CNS): > 100 µM | TGI (MOLT-4 leukemia): > 100 µM | TGI (SK-MEL-2 melanoma): > 100 µM | TGI (EKVX NSCLC): > 100 µM | TGI (BT-549 breast): > 100 µM | TGI (HOP-62 NSCLC): > 100 µM | TGI (NCI-H522 lung): > 100 µM | TGI (SW-620 colon): > 100 µM | TGI (ACHN renal): > 100 µM | TGI (SF-295 CNS): > 100 µM | TGI (NCI/ADR-RES ovarian): > 100 µM | TGI (SK-OV-3 ovarian): > 100 µM | TGI (SNB-19 CNS): > 100 µM | TGI (MDA-MB-435): > 100 µM | TGI (A549 NSCLC): > 100 µM | TGI (MDA-MB-231 breast): > 100 µM | TGI (SK-MEL-28 melanoma): > 100 µM | TGI (MCF7 breast): > 100 µM | TGI (MDA-N): > 100 µM | TGI (HT29 colon): > 100 µM | TGI (TK-10 renal): > 100 µM | TGI (OVCAR-3 ovarian): > 100 µM | TGI (COLO 205 colon): > 100 µM | TGI (HS 578T breast): > 100 µM | TGI (OVCAR-5 ovarian): > 100 µM | TGI (NCI-H23 lung): > 100 µM | TGI (RPMI-8226 leukemia): > 100 µM | TGI (HCT-15 colon): > 100 µM | TGI (OVCAR-4 ovarian): > 100 µM | TGI (HCC-2998 colon): > 100 µM | TGI (IGROV1 ovarian): > 100 µM | TGI (UACC-257 melanoma): > 100 µM | TGI (NCI-H460 lung): > 100 µM | TGI (SF-539 CNS): > 100 µM | TGI (KM12 colon): > 100 µM | TGI (LOX IMVI melanoma): > 100 µM | TGI (CAKI-1 renal): > 100 µM | TGI (PC-3 prostate): > 100 µM | TGI (UACC-62 melanoma): > 100 µM | TGI (HOP-92 NSCLC): > 100 µM | TGI (SN12C renal): > 100 µM | TGI (UO-31 renal): > 100 µM | TGI (HCT-116 colon): > 100 µM | TGI (SR leukemia): > 100 µM | TGI (SK-MEL-5 melanoma): > 100 µM | TGI (A498 renal): > 100 µM | TGI (OVCAR-8 ovarian): > 100 µM | TGI (T-47D breast): > 100 µM | TGI (SNB-75 CNS): > 100 µM | TGI (M14 melanoma): > 100 µM | TGI (U251 CNS): > 100 µM
